Experimental data from ChEMBL document CHEMBL1201862, “PubChem BioAssay data set” (2004).
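1) Cells in 96-well plates. 2) Compound, 48 h, 5 concentrations. 3) Linear interpolation between surrounding doses. 4) Unreached endpoint = highest concentration. GI50 is the concentration that inhibits growth by half.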 The source made the active and inactive calls. No stated cut-off is given here; in the data, active = GI50 up to about 1.1 µM and inactive = higher.

Assays:
Assay in all cases: inhibition of tumour cell growth, NCI panel, 48 h
[1] = system: A549
[2] = system: K562
[3] = system: SN12C
[4] = system: SF-268
[5] = system: HCC 2998
[6] = system: IGROV-1
[7] = system: SK-OV-3
[8] = system: SR
[9] = system: M14
[10] = system: MOLT-4
[11] = system: COLO 205
[12] = system: MDA-MB-231
[13] = system: DU-145
[14] = system: NCI-H522
[15] = system: OVCAR-5
[16] = system: NCI-H23
[17] = system: UO-31
[18] = system: HL-60
[19] = system: OVCAR-4
[20] = system: NCI-H460
[21] = system: NCI/ADR-RES
[22] = system: SF-539
[23] = system: HCT-15
[24] = system: U-251
[25] = system: HCT-116
[26] = system: SW-620
[27] = system: SNB-75
[28] = system: RPMI-8226
[29] = system: SK-MEL-28
[30] = system: A498
[31] = system: UACC-257
[32] = system: NCI-H226
[33] = system: HT-29
[34] = system: SNB-19
[35] = system: SK-MEL-5
[36] = system: TK-10
[37] = system: SK-MEL-2
[38] = system: KM12
[39] = system: OVCAR-3
[40] = system: T47D
[41] = system: ACHN
[42] = system: Hs-578T
[43] = system: EKVX
[44] = system: CAKI-1
[45] = system: HOP-92
[46] = system: MDA-N
[47] = system: HOP-62
[48] = system: MDA-MB-435
[49] = system: UACC-62
[50] = system: CCRF-CEM
[51] = system: LOX IMVI
[52] = system: MCF7
[53] = system: RXF 393
[54] = system: 786-0
[55] = system: BT-549
[56] = system: SF-295
[57] = system: OVCAR-8
[58] = system: PC-3
[59] = system: Malme-3M
[60] = system: LXFL 529
[61] = system: M19-MEL
[62] = system: DLD-1
[63] = system: DMS-114

## NC(=O)N(O)c1cccc(Br)c1
[1]
  GI50: > 100 µM (inactive)
[2]
  GI50: > 100 µM (inactive)
[3]
  GI50: > 100 µM (inactive)
[4]
  GI50: > 100 µM (inactive)
[5]
  GI50: > 100 µM (inactive)
[6]
  GI50: > 100 µM (inactive)
[7]
  GI50: > 100 µM (inactive)
[8]
  GI50: > 100 µM (inactive)
[9]
  GI50: > 100 µM (inactive)
[10]
  GI50: > 100 µM (inactive)
[11]
  GI50: > 100 µM (inactive)
[12]
  GI50: > 100 µM (inactive)
[13]
  GI50: > 100 µM (inactive)
[14]
  GI50: > 100 µM (inactive)
[15]
  GI50: > 100 µM (inactive)
[16]
  GI50: > 100 µM (inactive)
[17]
  GI50: > 100 µM (inactive)
[18]
  GI50: > 100 µM (inactive)
[19]
  GI50: > 100 µM (inactive)
[20]
  GI50: > 100 µM (inactive)
[21]
  GI50: > 100 µM (inactive)
[22]
  GI50: > 100 µM (inactive)
[23]
  GI50: > 100 µM
[24]
  GI50: > 100 µM (inactive)
[25]
  GI50: > 100 µM (inactive)
[26]
  GI50: > 100 µM (inactive)
[27]
  GI50: > 100 µM (inactive)
[28]
  GI50: > 100 µM (inactive)
[29]
  GI50: > 100 µM (inactive)
[30]
  GI50: > 100 µM (inactive)
[31]
  GI50: > 100 µM (inactive)
[32]
  GI50: > 100 µM (inactive)
[33]
  GI50: > 100 µM (inactive)
[34]
  GI50: > 100 µM (inactive)
[35]
  GI50: > 100 µM (inactive)
[36]
  GI50: > 100 µM (inactive)
[37]
  GI50: 66.5 µM (inactive)
[38]
  GI50: > 100 µM (inactive)
[39]
  GI50: > 100 µM (inactive)
[40]
  GI50: > 100 µM (inactive)
[41]
  GI50: > 100 µM (inactive)
[42]
  GI50: > 100 µM (inactive)
[43]
  GI50: > 100 µM (inactive)
[44]
  GI50: > 100 µM (inactive)
[45]
  GI50: > 100 µM (inactive)
[46]
  GI50: > 100 µM (inactive)
[47]
  GI50: > 100 µM (inactive)
[48]
  GI50: > 100 µM (inactive)
[49]
  GI50: > 100 µM (inactive)
[50]
  GI50: > 100 µM (inactive)
[51]
  GI50: > 100 µM (inactive)
[52]
  GI50: > 100 µM (inactive)
[53]
  GI50: > 100 µM (inactive)
[54]
  GI50: > 100 µM (inactive)
[55]
  GI50: > 100 µM (inactive)
[56]
  GI50: > 100 µM (inactive)
[57]
  GI50: > 100 µM (inactive)
[58]
  GI50: > 100 µM (inactive)

## CC1CC2C(=O)N(c3ccccc3)C(=O)C2c2c1c1ccccc1n2Cc1ccccc1 (stereo not given)
[1]
  GI50: 32.1 µM (inactive)
[2]
  GI50: 14.5 µM (inactive)
[3]
  GI50: > 100 µM (inactive)
[4]
  GI50: > 100 µM (inactive)
[6]
  GI50: > 100 µM (inactive)
[59]
  GI50: > 100 µM (inactive)
[7]
  GI50: > 100 µM (inactive)
[60]
  GI50: > 100 µM (inactive)
[8]
  GI50: 27.2 µM (inactive)
[9]
  GI50: > 100 µM (inactive)
[10]
  GI50: 58.5 µM (inactive)
[11]
  GI50: 49.8 µM (inactive)
[14]
  GI50: 17.7 µM (inactive)
[15]
  GI50: > 100 µM (inactive)
[17]
  GI50: > 100 µM (inactive)
[18]
  GI50: 10.5 µM (inactive)
[19]
  GI50: > 100 µM (inactive)
[20]
  GI50: > 100 µM (inactive)
[22]
  GI50: > 100 µM (inactive)
[61]
  GI50: > 100 µM (inactive)
[23]
  GI50: 35.1 µM
[25]
  GI50: 29.3 µM (inactive)
[26]
  GI50: > 100 µM (inactive)
[28]
  GI50: > 100 µM (inactive)
[32]
  GI50: 33.3 µM (inactive)
[33]
  GI50: > 100 µM (inactive)
[35]
  GI50: > 100 µM (inactive)
[37]
  GI50: > 100 µM (inactive)
[38]
  GI50: 7.52 µM (inactive)
[39]
  GI50: > 100 µM (inactive)
[41]
  GI50: 39.1 µM (inactive)
[43]
  GI50: > 100 µM (inactive)
[44]
  GI50: > 100 µM (inactive)
[45]
  GI50: 9.84 µM (inactive)
[47]
  GI50: > 100 µM (inactive)
[62]
  GI50: 12.5 µM (inactive)
[49]
  GI50: > 100 µM (inactive)
[50]
  GI50: > 100 µM (inactive)
[51]
  GI50: > 100 µM (inactive)
[63]
  GI50: 31 µM (inactive)
[54]
  GI50: > 100 µM (inactive)
[56]
  GI50: > 100 µM (inactive)
[57]
  GI50: > 100 µM (inactive)

## Cc1cccc2c(N)c3cccc(C(=O)NCCCNCCN)c3nc12
[1]
  GI50: 0.596 µM (active)
[2]
  GI50: 12.9 µM (inactive)
[3]
  GI50: 0.121 µM (active)
[4]
  GI50: 0.124 µM (active)
[5]
  GI50: 4.35 µM (inactive)
[6]
  GI50: 4.83 µM (inactive)
[59]
  GI50: 5.57 µM (inactive)
[7]
  GI50: 23.2 µM (inactive)
[8]
  GI50: 2.04 µM (inactive)
[9]
  GI50: 14.1 µM (inactive)
[10]
  GI50: 0.155 µM (active)
[11]
  GI50: 6.37 µM (inactive)
[12]
  GI50: 0.593 µM (active)
[13]
  GI50: 3.59 µM (inactive)
[14]
  GI50: < 0.01 µM (active)
[15]
  GI50: 11 µM (inactive)
[16]
  GI50: 1.01 µM (active)
[17]
  GI50: 19 µM (inactive)
[18]
  GI50: 12.2 µM (inactive)
[19]
  GI50: 1.87 µM (inactive)
[20]
  GI50: 1.1 µM (active)
[21]
  GI50: 25.9 µM (inactive)
[22]
  GI50: 2.17 µM (inactive)
[23]
  GI50: 28.3 µM
[24]
  GI50: 1.3 µM (inactive)
[25]
  GI50: 7.5 µM (inactive)
[26]
  GI50: 8.43 µM (inactive)
[27]
  GI50: 0.946 µM (active)
[28]
  GI50: 7.08 µM (inactive)
[29]
  GI50: 15.5 µM (inactive)
[30]
  GI50: 11.4 µM (inactive)
[31]
  GI50: 16.6 µM (inactive)
[32]
  GI50: 0.311 µM (active)
[33]
  GI50: 3.13 µM (inactive)
[34]
  GI50: 3.09 µM (inactive)
[35]
  GI50: 7.11 µM (inactive)
[36]
  GI50: 17.1 µM (inactive)
[37]
  GI50: 16.3 µM (inactive)
[38]
  GI50: 4.8 µM (inactive)
[39]
  GI50: 20.2 µM (inactive)
[40]
  GI50: 7.85 µM (inactive)
[41]
  GI50: 10.5 µM (inactive)
[42]
  GI50: 0.23 µM (active)
[43]
  GI50: 13.8 µM (inactive)
[44]
  GI50: 7.91 µM (inactive)
[45]
  GI50: 5.61 µM (inactive)
[46]
  GI50: 13.7 µM (inactive)
[47]
  GI50: 3.53 µM (inactive)
[48]
  GI50: 15.5 µM (inactive)
[49]
  GI50: 4.38 µM (inactive)
[50]
  GI50: 1.46 µM (inactive)
[51]
  GI50: 7.11 µM (inactive)
[52]
  GI50: 0.679 µM (active)
[53]
  GI50: 3.4 µM (inactive)
[54]
  GI50: 1.71 µM (inactive)
[55]
  GI50: 14.6 µM (inactive)
[56]
  GI50: 4.45 µM (inactive)
[57]
  GI50: 5.32 µM (inactive)
[58]
  GI50: 14.3 µM (inactive)
